Data as given in ChEMBL document CHEMBL1201862, “PubChem BioAssay data set” (2004).
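1) Cells in 96-well plates. 2) Compound, 48 h, 5 concentrations. 3) Linear interpolation between surrounding doses. 4) Unreached endpoint = highest concentration. GI50 marks 50% less growth.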 Active and inactive are the calls of the source. No stated cut-off is given here; in the data, active = GI50 up to about 1.1 µM and inactive = higher.

Columns and labels:
Assay in all cases: DTP human tumour cell line panel, 48 h
SW-620 = system: SW-620
SF-268 = system: SF-268
NCI-H522 = system: NCI-H522
M14 = system: M14
HOP-62 = system: HOP-62
SK-MEL-28 = system: SK-MEL-28
OVCAR-3 = system: OVCAR-3
RXF 393 = system: RXF 393
Malme-3M = system: Malme-3M
HL-60 = system: HL-60
OVCAR-8 = system: OVCAR-8
SN12C = system: SN12C
HCC 2998 = system: HCC 2998
K562 = system: K562
HCT-116 = system: HCT-116
HOP-92 = system: HOP-92

Measured: GI50

CC1=C(C(=O)Nc2ccccc2C)C(c2ccc(Cl)cc2)C(C(=O)Nc2ccccc2C)=C(C)N1
inactive: SW-620 > 100 µM | SF-268 > 100 µM | NCI-H522 > 100 µM | M14 > 100 µM | HOP-62 > 100 µM | SK-MEL-28 > 100 µM | OVCAR-3 > 100 µM | RXF 393 > 100 µM | Malme-3M > 100 µM | HL-60 > 100 µM | OVCAR-8 > 100 µM | SN12C > 100 µM | HCC 2998 > 100 µM | K562 > 100 µM | HCT-116 > 100 µM | HOP-92 > 100 µM

N#CC(C#N)=Cc1ccc(CP(=O)(O)O)cc1
inactive: SW-620 > 100 µM | SF-268 > 100 µM | NCI-H522 59.6 µM | M14 > 100 µM | HOP-62 > 100 µM | SK-MEL-28 > 100 µM | OVCAR-3 > 100 µM | Malme-3M > 100 µM | HL-60 70.6 µM | OVCAR-8 > 100 µM | SN12C > 100 µM | HCC 2998 > 100 µM | K562 > 100 µM | HCT-116 > 100 µM | HOP-92 > 100 µM

O=C1[C@H]2C(c3ccccc3)=NN(C(=O)c3ccccc3)[C@H]2C(=O)N1c1ccccc1
inactive: SW-620 > 100 µM | NCI-H522 > 100 µM | M14 > 100 µM | HOP-62 > 100 µM | SK-MEL-28 > 100 µM | OVCAR-3 > 100 µM | RXF 393 > 100 µM | Malme-3M > 100 µM | OVCAR-8 > 100 µM | SN12C > 100 µM | K562 > 100 µM | HCT-116 > 100 µM

O=c1c(Cc2ccccc2)c(O)cc2n1CCC2
inactive: SW-620 > 100 µM | SF-268 > 100 µM | NCI-H522 > 100 µM | M14 > 100 µM | HOP-62 > 100 µM | SK-MEL-28 > 100 µM | OVCAR-3 > 100 µM | RXF 393 > 100 µM | Malme-3M > 100 µM | OVCAR-8 > 100 µM | SN12C > 100 µM | HCC 2998 > 100 µM | K562 > 100 µM | HCT-116 > 100 µM | HOP-92 > 100 µM

COc1ccc(N2C(=O)C3c4[nH]c5ccccc5c4C4CC(C)CC(C)C4C3C2=O)cc1 (configuration not stated)
inactive: SW-620 > 100 µM | SF-268 > 100 µM | NCI-H522 > 100 µM | M14 > 100 µM | HOP-62 > 100 µM | SK-MEL-28 > 100 µM | RXF 393 > 100 µM | Malme-3M > 100 µM | HL-60 > 100 µM | OVCAR-8 > 100 µM | SN12C > 100 µM | HCC 2998 > 100 µM | K562 > 100 µM | HCT-116 > 100 µM | HOP-92 > 100 µM

BrC(Br)([P+](c1ccccc1)(c1ccccc1)c1ccccc1)[P+](c1ccccc1)(c1ccccc1)c1ccccc1
inactive: SW-620 12.2 µM | SF-268 24 µM | NCI-H522 15 µM | M14 18.5 µM | HOP-62 40.5 µM | SK-MEL-28 16.6 µM | OVCAR-3 11.9 µM | RXF 393 11.1 µM | Malme-3M 12.5 µM | HL-60 7.94 µM | OVCAR-8 13.1 µM | SN12C 22.7 µM | HCC 2998 17.4 µM | HCT-116 17.3 µM | HOP-92 11.1 µM

CC[P+]1(c2ccccc2)CCCCC1
inactive: SW-620 > 100 µM | SF-268 > 100 µM | M14 > 100 µM | HOP-62 > 100 µM | SK-MEL-28 > 100 µM | OVCAR-3 > 100 µM | RXF 393 > 100 µM | Malme-3M > 100 µM | HL-60 > 100 µM | OVCAR-8 > 100 µM | SN12C > 100 µM | HCC 2998 > 100 µM | K562 > 100 µM | HCT-116 > 100 µM | HOP-92 > 100 µM

O=CN/C=C\c1cc(O)ccc1O
inactive: SW-620 12.6 µM | SF-268 22.5 µM | NCI-H522 4.99 µM | M14 13.5 µM | HOP-62 18.6 µM | SK-MEL-28 42.2 µM | OVCAR-3 12.2 µM | Malme-3M 13.8 µM | HL-60 10.4 µM | OVCAR-8 15.6 µM | SN12C 14 µM | HCC 2998 > 100 µM | K562 13.3 µM | HCT-116 10.6 µM | HOP-92 14.2 µM

Oc1cc(O)c(Oc2cccc(O)c2O)c(O)c1
inactive: SW-620 55.6 µM | SF-268 > 100 µM | NCI-H522 49.7 µM | M14 > 100 µM | HOP-62 > 100 µM | SK-MEL-28 > 100 µM | OVCAR-3 73.3 µM | RXF 393 > 100 µM | Malme-3M > 100 µM | HL-60 99.5 µM | OVCAR-8 > 100 µM | SN12C > 100 µM | HCC 2998 > 100 µM | K562 35 µM | HOP-92 > 100 µM

COc1ccccc1/C=C\c1cc(OC)c(OC)c(OC)c1
inactive: SW-620 3.85 µM | NCI-H522 6.14 µM | M14 5.85 µM | HOP-62 5.18 µM | SK-MEL-28 33.9 µM | OVCAR-3 10.2 µM | RXF 393 11 µM | Malme-3M 16.5 µM | HL-60 3.22 µM | OVCAR-8 24.5 µM | SN12C 29.3 µM | K562 4.06 µM | HCT-116 9.23 µM | HOP-92 8.65 µM

Cc1cc(N(CCC#N)CCC#N)ccc1/N=N/c1cccc(Cl)c1
inactive: SW-620 > 100 µM | NCI-H522 > 100 µM | M14 > 100 µM | HOP-62 86.5 µM | SK-MEL-28 > 100 µM | OVCAR-3 > 100 µM | RXF 393 75 µM | Malme-3M > 100 µM | HL-60 3.94 µM | OVCAR-8 > 100 µM | SN12C > 100 µM | K562 3.42 µM | HCT-116 > 100 µM | HOP-92 20.7 µM

Cc1ccccc1NC(=O)CC(=O)NNCC(=O)Nc1nnc(-c2ccccc2)s1
inactive: SW-620 87.7 µM | SF-268 > 100 µM | NCI-H522 65.2 µM | M14 57.1 µM | HOP-62 42.9 µM | SK-MEL-28 > 100 µM | OVCAR-3 31.4 µM | HL-60 31.5 µM | OVCAR-8 54.2 µM | SN12C > 100 µM | HCC 2998 > 100 µM | K562 37.8 µM | HCT-116 64.9 µM

O=C(Nc1nc2c(ncn2C2OC(CO)C(O)C2O)c(=O)[nH]1)c1ccccc1 (configuration not stated)
inactive: SW-620 > 100 µM | SF-268 > 100 µM | NCI-H522 93.3 µM | M14 > 100 µM | HOP-62 > 100 µM | SK-MEL-28 > 100 µM | OVCAR-3 > 100 µM | RXF 393 63 µM | Malme-3M > 100 µM | HL-60 > 100 µM | OVCAR-8 > 100 µM | SN12C > 100 µM | K562 > 100 µM | HCT-116 > 100 µM | HOP-92 > 100 µM

Cc1ccccc1C1=C(C(=O)Nc2ccc(Cl)c(Cl)c2)NC(=S)NC1N (configuration not stated)
inactive: SW-620 > 100 µM | SF-268 > 100 µM | NCI-H522 > 100 µM | M14 > 100 µM | SK-MEL-28 > 100 µM | OVCAR-3 > 100 µM | RXF 393 > 100 µM | Malme-3M > 100 µM | OVCAR-8 > 100 µM | SN12C > 100 µM | K562 > 100 µM | HCT-116 > 100 µM

Cc1cccc(NC2=NC(=O)C(CC(=O)Nc3ccccc3Cl)S2)c1 (configuration not stated)
inactive: SW-620 > 100 µM | SF-268 > 100 µM | M14 > 100 µM | SK-MEL-28 > 100 µM | OVCAR-3 > 100 µM | RXF 393 > 100 µM | Malme-3M > 100 µM | HL-60 > 100 µM | OVCAR-8 > 100 µM | SN12C > 100 µM | HCC 2998 > 100 µM | K562 > 100 µM | HCT-116 > 100 µM | HOP-92 > 100 µM

Cc1oc2c(C)c(O)c3c(c2c1C1(C)OCCO1)C(=O)C=C(Cl)C3=O
inactive: SW-620 > 100 µM | SF-268 > 100 µM | NCI-H522 > 100 µM | M14 > 100 µM | HOP-62 > 100 µM | SK-MEL-28 > 100 µM | OVCAR-3 > 100 µM | RXF 393 > 100 µM | HL-60 > 100 µM | OVCAR-8 > 100 µM | SN12C > 100 µM | K562 > 100 µM | HCT-116 > 100 µM | HOP-92 > 100 µM

Cc1ccccc1C1=[N+]([O-])c2ccccc2C1=O
inactive: SW-620 26.4 µM | SF-268 20.5 µM | NCI-H522 15.2 µM | M14 18.4 µM | HOP-62 23.1 µM | SK-MEL-28 20.7 µM | OVCAR-3 12.7 µM | RXF 393 21.9 µM | Malme-3M 18.4 µM | HL-60 10.3 µM | OVCAR-8 16.7 µM | SN12C 17.7 µM | K562 20.9 µM | HCT-116 18.5 µM | HOP-92 49.4 µM

Cc1ccc(NC(=O)C(=O)C2C(=O)N(c3ccccc3)N=C2N)cc1C (configuration not stated)
inactive: SW-620 > 100 µM | SF-268 > 100 µM | NCI-H522 > 100 µM | M14 > 100 µM | HOP-62 > 100 µM | SK-MEL-28 > 100 µM | OVCAR-3 > 100 µM | Malme-3M > 100 µM | HL-60 > 100 µM | OVCAR-8 > 100 µM | SN12C > 100 µM | HCC 2998 > 100 µM | K562 > 100 µM | HCT-116 > 100 µM | HOP-92 > 100 µM

COc1ccc(C2C3=C(COC3=O)Oc3cc4c(cc32)OCO4)cc1 (configuration not stated)
inactive: SW-620 6.21 µM | M14 17.7 µM | HOP-62 8.39 µM | SK-MEL-28 47.9 µM | OVCAR-3 7.18 µM | RXF 393 19.1 µM | Malme-3M 56 µM | HL-60 3.97 µM | OVCAR-8 36.2 µM | SN12C 27.9 µM | K562 3.85 µM | HCT-116 13.2 µM | HOP-92 14.9 µM
